Each structure is given as a SMILES string. Structures can show the parent of a compound that is named as a salt.

For 17 molecules, IC50 results are on record in patent publication US9505745B2, “Enhancer of zeste homolog 2 inhibitors” (GlaxoSmithKline Intellectual Property (No.2) Limited, priority 2013, dated 2016).

The target in experiment [1] is T1, EZH2 within the PRC2 complex (Homo sapiens (Human), UniProt Q15910). Description: EZH2 methyltransferase SPA, mononucleosome substrate (Assay Protocol 1). Type of experiment: biochemical. The following applies: HeLa mononucleosome substrate, 3H-SAM, ≦10 nM approaches limit of detection. As for the experimental part:
Compounds contained herein were evaluated for their ability to inhibit the methyltransferase activity of EZH2 within the PRC2 complex. Human PRC2 complex was prepared by co-expressing each of the 5 member proteins (FLAG-EZH2, EED, SUZ12, RbAp48, AEBP2) in Sf9 cells followed by co-purification. Enzyme activity was measured in a scintillation proximity assay (SPA) where a tritiated methyl group is transferred from 3H-SAM to a lysine residue on Histone H3 of a mononucleosome, purified from HeLa cells. Mononucleosomes were captured on SPA beads and the resulting signal is read on a ViewLux plate reader.
Part A. Compound Preparation
• 1. Prepare 10 mM stock of compounds from solid in 100% DMSO. • 2. Set up an 11-point serial dilution (1:3 dilution, top concentration 10 mM) in 100% DMSO for each test compound in a 384 well plate leaving columns 6 and 18 for DMSO controls. • 3. Dispense 100 nL of compound from the dilution plate into reaction plates (Grenier Bio-One, 384-well, Cat#784075). Part B. Reagent Preparation Prepare the following solutions: • 1. 50 mM Tris-HCl, pH 8: Per 1 L of base buffer, combine 1 M Tris-HCl, pH 8 (50 mL) and distilled water (950 mL). • 2. 1× Assay Buffer: Per 10 mL of 1× Assay Buffer, combine 50 mM Tris-HCl, pH 8 (9958 uL), 1 M MgCl2 (20 uL), 2 M DTT (20 uL), and 10% Tween-20 (2 uL) to provide a final concentration of 50 mM Tris-HCl, pH 8, 2 mM MgCl2, 4 mM DTT, 0.002% Tween-20. • 3. 2× Enzyme Solution: Per 10 mL of 2× Enzyme Solution, combine 1× Assay Buffer and PRC2 complex to provide a final enzyme concentration of 10 nM. • 4. SPA Bead Suspension: Per 1 mL of SPA Bead Suspension, combine PS-PEI coated LEADSeeker beads (40 mg) and H2O (1 mL) to provide a final concentration of 40 mg/mL. • 5. 2× Substrate Solution: Per 10 mL of 2× Substrate Solution, combine 1× Assay Buffer (9728.55 uL), 800 ug/mL mononucleosomes (125 uL), 1 mM cold SAM (4 uL), and 7.02 uM 3H-SAM (142.45 uL; 0.55 mCi/mL) to provide a final concentration of 5 ug/mL nucleosomes, 0.2 uM cold SAM, and 0.05 uM 3H-SAM. • 6. 2.67× Quench/Bead Mixture: Per 10 mL of 2.67× Quench/Bead Mixture, combine ddH2O (9358 uL), 10 mM cold SAM (267 uL), 40 mg/mL Bead Suspension (375 uL) to provide a final concentration of 100 uM cold SAM and 0.5 mg/mL SPA beads. Part C. Assay Reaction in 384-well Grenier Bio-One Plates Compound Addition • 1. Dispense 100 nL/well of 100× Compound to test wells (as noted above). • 2. Dispense 100 nL/well of 100% DMSO to columns 6 & 18 for high and low controls, respectively. Assay • 1. Dispense 5 uL/well of 1× Assay Buffer to column 18 (low control reactions). • 2. Dispense 5 uL/well of 2× Enzyme Solution to columns 1-17, 19-24. • 3. Spin assay plates for ˜1 min at 500 rpm. • 4. Stack the assay plates, covering the top plate. • 5. Incubate the compound/DMSO with the enzyme for 30 min at room temperature. • 6. Dispense 5 uL/well of 2× Substrate Solution to columns 1-24. • 7. Spin assay plates for ˜1 min at 500 rpm. • 8. Stack the assay plates, covering the top plate. • 9. Incubate the assay plates at room temperature for 1 hour. Quench/Bead Addition • 1. Dispense 5 uL/well of the 3× Quench/Bead Mixture to columns 1-24. • 2. Seal the top of each assay plate with adhesive TopSeal. • 3. Spin assay plates for ˜1 min at 500 rpm. • 4. Equilibrate the plates for >20 min. Read plates • 1. Read the assay plates on the Viewlux Plate Reader utilizing the 613 nm emission filter with a 300 s read time.
Reagent addition can be done manually or with automated liquid handler. • The final DMSO concentration in this assay is 1%. • The positive control is in column 6; negative control is in column 18. • Final starting concentration of compounds is 100 µM. Results
Percent inhibition was calculated relative to the DMSO control for each compound concentration and the resulting values were fit using standard IC50 fitting parameters within the ABASE data fitting software package.

Experiment [2] has as its target T1, EZH2 within the PRC2 complex. Description: EZH2 methyltransferase SPA, biotinylated histone H3K27 peptide substrate (Assay Protocol 2). Type of experiment: biochemical. The note with it: 3H-SAM, ≦10 nM approaches limit of detection. Summed up:
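Scintillation proximity read-out of 3H-methyl transfer onto biotinylated unmethylated H3K27 peptide (10 uM) captured on streptavidin beads; SAM 0.15 uM tritiated plus 2.85 uM cold.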

T1 sequence (Q15910 whole entry): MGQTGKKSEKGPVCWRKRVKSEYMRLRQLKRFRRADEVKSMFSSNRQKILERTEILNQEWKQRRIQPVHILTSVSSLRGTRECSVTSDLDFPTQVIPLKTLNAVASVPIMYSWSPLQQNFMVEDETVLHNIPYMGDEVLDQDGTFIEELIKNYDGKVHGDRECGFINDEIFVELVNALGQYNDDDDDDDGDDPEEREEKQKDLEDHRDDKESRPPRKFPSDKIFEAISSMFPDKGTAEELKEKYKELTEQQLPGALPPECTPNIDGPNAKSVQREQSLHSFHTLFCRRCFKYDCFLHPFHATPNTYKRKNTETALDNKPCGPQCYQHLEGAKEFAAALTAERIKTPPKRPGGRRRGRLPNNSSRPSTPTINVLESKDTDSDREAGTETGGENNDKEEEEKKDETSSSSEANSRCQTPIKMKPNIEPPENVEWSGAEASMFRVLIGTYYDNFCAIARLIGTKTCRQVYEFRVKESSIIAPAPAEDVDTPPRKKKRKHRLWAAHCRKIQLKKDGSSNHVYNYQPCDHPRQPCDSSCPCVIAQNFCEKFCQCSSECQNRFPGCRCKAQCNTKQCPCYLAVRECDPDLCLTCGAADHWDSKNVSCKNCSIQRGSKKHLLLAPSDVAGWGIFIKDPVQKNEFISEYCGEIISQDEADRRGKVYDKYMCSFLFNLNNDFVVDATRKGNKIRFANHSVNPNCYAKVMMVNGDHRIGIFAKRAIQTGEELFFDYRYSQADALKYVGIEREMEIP
T1 sequence (O75530 whole entry partner): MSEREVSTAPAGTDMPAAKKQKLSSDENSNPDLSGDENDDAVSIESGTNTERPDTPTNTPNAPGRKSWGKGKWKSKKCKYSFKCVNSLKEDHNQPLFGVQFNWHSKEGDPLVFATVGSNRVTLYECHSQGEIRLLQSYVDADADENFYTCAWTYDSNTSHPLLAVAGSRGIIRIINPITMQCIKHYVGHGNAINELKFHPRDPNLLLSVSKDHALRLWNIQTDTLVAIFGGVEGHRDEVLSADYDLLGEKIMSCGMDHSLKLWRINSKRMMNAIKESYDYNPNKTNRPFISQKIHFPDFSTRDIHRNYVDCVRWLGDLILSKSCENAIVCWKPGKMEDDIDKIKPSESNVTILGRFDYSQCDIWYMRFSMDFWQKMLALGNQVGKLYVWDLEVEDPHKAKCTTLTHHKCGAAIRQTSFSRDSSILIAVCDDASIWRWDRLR
T1 sequence (Q15022 whole entry partner): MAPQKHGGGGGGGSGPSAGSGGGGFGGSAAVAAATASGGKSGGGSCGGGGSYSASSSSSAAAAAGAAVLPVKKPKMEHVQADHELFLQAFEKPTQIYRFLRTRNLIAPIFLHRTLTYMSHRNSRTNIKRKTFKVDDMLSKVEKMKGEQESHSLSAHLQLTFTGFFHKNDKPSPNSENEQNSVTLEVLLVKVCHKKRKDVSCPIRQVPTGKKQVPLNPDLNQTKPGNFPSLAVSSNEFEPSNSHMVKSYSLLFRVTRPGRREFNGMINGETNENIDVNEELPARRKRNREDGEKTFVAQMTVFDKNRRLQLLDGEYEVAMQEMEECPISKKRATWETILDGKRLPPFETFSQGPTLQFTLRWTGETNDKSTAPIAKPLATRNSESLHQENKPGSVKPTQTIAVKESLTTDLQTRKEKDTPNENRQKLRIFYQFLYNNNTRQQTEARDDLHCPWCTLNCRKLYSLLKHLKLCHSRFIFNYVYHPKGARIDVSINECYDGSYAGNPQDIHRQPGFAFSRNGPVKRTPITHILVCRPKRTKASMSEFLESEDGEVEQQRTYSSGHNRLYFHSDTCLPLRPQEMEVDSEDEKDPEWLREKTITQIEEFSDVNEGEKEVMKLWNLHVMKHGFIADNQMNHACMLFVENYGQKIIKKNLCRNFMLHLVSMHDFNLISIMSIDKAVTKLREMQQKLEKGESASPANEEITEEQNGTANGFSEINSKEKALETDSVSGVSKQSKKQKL
T1 sequence (Q09028 whole entry partner): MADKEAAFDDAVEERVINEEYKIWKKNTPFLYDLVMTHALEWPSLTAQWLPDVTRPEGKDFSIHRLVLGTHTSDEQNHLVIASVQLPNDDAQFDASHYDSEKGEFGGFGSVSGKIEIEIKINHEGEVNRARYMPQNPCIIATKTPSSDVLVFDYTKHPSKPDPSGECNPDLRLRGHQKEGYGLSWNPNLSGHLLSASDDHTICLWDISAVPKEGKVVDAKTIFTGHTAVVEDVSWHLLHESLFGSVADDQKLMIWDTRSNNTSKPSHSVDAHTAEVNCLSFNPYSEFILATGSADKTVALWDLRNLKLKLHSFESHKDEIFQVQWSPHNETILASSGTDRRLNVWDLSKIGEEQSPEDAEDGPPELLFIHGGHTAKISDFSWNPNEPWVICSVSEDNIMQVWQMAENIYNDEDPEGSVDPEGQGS
T1 sequence (Q6ZN18 whole entry partner): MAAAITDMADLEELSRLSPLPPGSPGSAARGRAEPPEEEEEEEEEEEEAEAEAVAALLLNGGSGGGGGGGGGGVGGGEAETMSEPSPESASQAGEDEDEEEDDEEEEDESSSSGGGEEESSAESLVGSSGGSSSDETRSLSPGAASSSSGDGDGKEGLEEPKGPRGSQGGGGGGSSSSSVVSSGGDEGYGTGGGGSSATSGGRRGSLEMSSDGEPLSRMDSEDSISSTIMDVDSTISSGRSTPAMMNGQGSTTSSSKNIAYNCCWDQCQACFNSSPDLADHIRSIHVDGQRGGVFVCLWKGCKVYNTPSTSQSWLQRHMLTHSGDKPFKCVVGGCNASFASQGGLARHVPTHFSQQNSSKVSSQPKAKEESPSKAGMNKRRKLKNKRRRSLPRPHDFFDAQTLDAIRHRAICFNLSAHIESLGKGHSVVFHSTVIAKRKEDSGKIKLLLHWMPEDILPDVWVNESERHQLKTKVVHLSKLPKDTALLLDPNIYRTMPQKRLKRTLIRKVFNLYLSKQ

As for `CCN(c1scc(C(=O)NCc2c(C)cc(C)[nH]c2=O)c1C)C1CCOCC1` [Example 6, N-((4,6-dimethyl-2-oxo-1,2-dihydropyridin-3-yl)methyl)-5-(ethyl(tetrahydro-2H-pyran-4-yl)amino)-4-methylthiophene-3-carboxamide], the half-maximal inhibitory concentration (IC50) in experiment [1] and in experiment [2] was 16 nM in each case.

With `CCN(c1scc(C(=O)NCc2c(C)cc(C)[nH]c2=O)c1C)[C@H]1CC[C@@H](N(C)C)CC1` [Example 7, N-((4,6-dimethyl-2-oxo-1,2-dihydropyridin-3-yl)methyl)-5-(((cis)-4-(dimethylamino)cyclohexyl)(ethyl)amino)-4-methylthiophene-3-carboxamide], the IC50 (in general, the point on the concentration scale where inhibition reaches its midpoint) is no more than 10 nM in experiment [1] and 20 nM in experiment [2].

On to `CCN(c1scc(C(=O)NCc2c(C)cc(C)[nH]c2=O)c1C)[C@H]1CC[C@H](N(C)C)CC1` [Example 8, N-((4,6-dimethyl-2-oxo-1,2-dihydropyridin-3-yl)methyl)-5-(((trans)-4-(dimethylamino)cyclohexyl)(ethyl)amino)-4-methylthiophene-3-carboxamide], for which the IC50 in experiment [1] is no more than 10 nM; in experiment [2], 13 nM.

With `Cc1cc(C)c(CNC(=O)c2cnn(-c3ccccc3)c2C)c(=O)[nH]1` [Example 9, N-((4,6-dimethyl-2-oxo-1,2-dihydropyridin-3-yl)methyl)-5-methyl-1-phenyl-1H-pyrazole-4-carboxamide], the 50% inhibitory concentration (IC50) in experiment [1] was determined as 20000 nM; in experiment [2], 63100 nM.

`Cc1cc(C)c(CNC(=O)c2cnn(CC3CCOCC3)c2C)c(=O)[nH]1` [Example 10, N-((4,6-dimethyl-2-oxo-1,2-dihydropyridin-3-yl)methyl)-5-methyl-1-((tetrahydro-2H-pyran-4-yl)methyl)-1H-pyrazole-4-carboxamide]: the values for the IC50 in experiment [1] and in experiment [2] were 15800 nM and no less than 100000 nM, respectively.

As for `CCN(c1scc(C(=O)NCc2c(C)cc(C)[nH]c2=O)c1C)C1CCN(C(=O)OC(C)(C)C)CC1` [Example 11, tert-Butyl 4-((4-(((4,6-dimethyl-2-oxo-1,2-dihydropyridin-3-yl)methyl)carbamoyl)-3-methylthiophen-2-yl)(ethyl)amino)piperidine-1-carboxylate], the half-maximal inhibitory concentration (IC50) in experiment [1] was 16 nM; in experiment [2], 20 nM.

Consider `CCN(c1scc(C(=O)NCc2c(C)cc(C)[nH]c2=O)c1C)C1CCNCC1` [Example 12, N-((4,6-dimethyl-2-oxo-1,2-dihydropyridin-3-yl)methyl)-5-(ethyl(piperidin-4-yl)amino)-4-methylthiophene-3-carboxamide hydrochloride], for which the half-inhibitory concentration (IC50) in experiment [1] was no more than 10 nM; in experiment [2] it was 20 nM.

In the case of `Cc1cc(C)c(CNC(=O)c2csc(C(C)N3CCC(N(C)C)CC3)c2)c(=O)[nH]1` (stereo not shown) [Example 13, N-((4,6-dimethyl-2-oxo-1,2-dihydropyridin-3-yl)methyl)-5-(1-(4-(dimethylamino)piperidin-1-yl)ethyl)thiophene-3-carboxamide], the values for the half-inhibitory concentration (IC50) in experiment [1] and in experiment [2] were 316 nM and 2000 nM, respectively.

As to `CCN(c1c(C)c(C(=O)NCc2c(C)cc(C)[nH]c2=O)nn1C)C1CCOCC1` [Example 14, N-[(4,6-dimethyl-2-oxo-1,2-dihydro-3-pyridinyl)methyl]-5-[ethyl(tetrahydro-2H-pyran-4-yl)amino]-1,4-dimethyl-1H-pyrazole-3-carboxamide], the IC50 in experiment [1] turned out to be 630 nM; in experiment [2], 2000 nM.

In the case of `CCN(c1scc(C(=O)NCc2c(C(F)(F)F)cc(C)[nH]c2=O)c1C)C1CCOCC1` [Example 15, 5-(Ethyl(tetrahydro-2H-pyran-4-yl)amino)-4-methyl-N-((6-methyl-2-oxo-4-(trifluoromethyl)-1,2-dihydropyridin-3-yl)methyl)thiophene-3-carboxamide], the half-inhibitory concentration (IC50) in experiment [1] stood at 79 nM; in experiment [2] it was 630 nM.

On to `CCCc1cc(C)[nH]c(=O)c1CNC(=O)c1csc(N(CC)[C@H]2CC[C@H](N(C)C)CC2)c1C` [Example 16, 5-(((trans)-4-(Dimethylamino)cyclohexyl)(ethyl)amino)-4-methyl-N-((6-methyl-2-oxo-4-propyl-1,2-dihydropyridin-3-yl)methyl)thiophene-3-carboxamide], for which the IC50 in experiment [1] is no more than 10 nM; in experiment [2], 25 nM.

Take `CCN(c1scc(C(=O)NCc2c(C)cc(C(F)(F)F)[nH]c2=O)c1C)[C@H]1CC[C@H](N(C)C)CC1` [Example 17, 5-(((trans)-4-(Dimethylamino)cyclohexyl)(ethyl)amino)-4-methyl-N-((4-methyl-2-oxo-6-(trifluoromethyl)-1,2-dihydropyridin-3-yl)methyl)thiophene-3-carboxamide]: the concentration for half-maximal inhibition (IC50) in experiment [1] amounted to 316 nM; in experiment [2], 630 nM.

`CCN(c1scc(C(=O)NCc2c(OC)cc(C)[nH]c2=O)c1C)[C@H]1CC[C@H](N(C)C)CC1` [Example 18, 5-(((trans)-4-(Dimethylamino)cyclohexyl)(ethyl)amino)-N-((4-methoxy-6-methyl-2-oxo-1,2-dihydropyridin-3-yl)methyl)-4-methylthiophene-3-carboxamide]: the IC50 was no more than 10 nM in experiment [1] and 13 nM in experiment [2].

With `CCN(c1sc(Br)c(C(=O)NCc2c(C)cc(C)[nH]c2=O)c1C)C1CCOCC1` [Example 19, 2-Bromo-N-((4,6-dimethyl-2-oxo-1,2-dihydropyridin-3-yl)methyl)-5-(ethyl(tetrahydro-2H-pyran-4-yl)amino)-4-methylthiophene-3-carboxamide], the IC50 in experiment [1] is no more than 10 nM; in experiment [2], 20 nM.

For the molecule `Cc1cc(C)c(CNC(=O)c2csc(C(O)C3CCN(C(=O)OC(C)(C)C)CC3)c2C)c(=O)[nH]1` (stereo not shown) [Example 20, tert-Butyl 4-((4-(((4,6-dimethyl-2-oxo-1,2-dihydropyridin-3-yl)methyl)carbamoyl)-3-methylthiophen-2-yl)(hydroxy)methyl)piperidine-1-carboxylate], the half-inhibitory concentration (IC50) in experiment [1] came out at 158 nM; in experiment [2], 1590 nM.

For the molecule `Cc1cc(C)c(CNC(=O)c2csc(C(O)C3CCNCC3)c2C)c(=O)[nH]1` (stereo not shown) [Example 21, N-((4,6-dimethyl-2-oxo-1,2-dihydropyridin-3-yl)methyl)-5-(hydroxy(piperidin-4-yl)methyl)-4-methylthiophene-3-carboxamide], the IC50 in experiment [1] came out at 100 nM; in experiment [2], 316 nM.

For the molecule `Cc1cc(C)c(CNC(=O)c2csc(C3CCCN3C3CCOCC3)c2C)c(=O)[nH]1` (stereo not shown) [Example 22, N-((4,6-Dimethyl-2-oxo-1,2-dihydropyridin-3-yl)methyl)-4-methyl-5-(1-(tetrahydro-2H-pyran-4-yl)pyrrolidin-2-yl)thiophene-3-carboxamide], the IC50 in experiment [1] stood at 398 nM; in experiment [2], 6310 nM.
